Results published in US11180504B2 (ORCHID PHARMA LTD., priority 2016, dated 2021).
In brackets after ≈: the same amount, converted by molar mass.

Experiments:
[1] = tested on: extended spectrum β lactamase (ESBL) SHV18 producing Klebsiella pneumoniae; assay: MIC by broth micro-dilution (CLSI), ESBL SHV18 producing K. pneumoniae; type: cell-based; settings: Klebsiella pneumoniae, ATCC700603, 22 h, ESBL +ve (SHV-18) K. pneumoniae ATCC700603; read-out: MIC
[2] = tested on: methicillin-sensitive Staphylococcus aureus; assay: MIC by broth micro-dilution (CLSI), methicillin-sensitive S. aureus; type: cell-based; settings: Staphylococcus aureus, ATCC 29213 / MSSA, MSSA S. aureus ATCC29213; read-out: MIC
[3] = tested on: carbapenem sensitive Pseudomonas aeruginosa; assay: MIC by broth micro-dilution (CLSI), carbapenem sensitive P. aeruginosa; type: cell-based; settings: Pseudomonas aeruginosa, ATCC27853, Meropenem susceptible P. aeruginosa ATCC27853; read-out: MIC
[4] = tested on: carbapenemase producing K. pneumoniae; assay: MIC by broth micro-dilution (CLSI), carbapenemase producing K. pneumoniae; type: cell-based, Klebsiella pneumoniae; settings: Klebsiella pneumoniae, ATCCBAA1705, KPC-2 K. pneumoniae ATCC BAA-1705; read-out: MIC
[5] = tested on: carbapenem sensitive Escherichia coli; assay: MIC by broth micro-dilution (CLSI), carbapenem sensitive E. coli; type: cell-based; settings: Escherichia coli, ATCC25922, ESBL −ve E. coli ATCC25922; read-out: MIC

Row | Structure (SMILES) | MIC [1] | MIC [2] | MIC [3] | MIC [4] | MIC [5]
1 | C[C@@H](NC(=O)C[S+]([O-])C(F)F)[C@H]1C(=O)N2C(C(=O)O)=C(S[C@@H]3CN[C@H](C(=O)N(C)C)C3)[C@H](C)[C@H]12 (mixture of isomers) [Example 82] | 2 µg/mL | 8 µg/mL | 128 µg/mL | 8 µg/mL | 1 µg/mL
2 | CC(F)C(=O)N[C@H](C)[C@H]1C(=O)N2C(C(=O)O)=C(S[C@@H]3CN[C@H](C(=O)N(C)C)C3)[C@H](C)[C@H]12 (mixture of isomers) [Example 84] | 4 µg/mL | 4 µg/mL | 128 µg/mL | 16 µg/mL | 1 µg/mL
3 | C[C@@H](NS(C)(=O)=O)[C@H]1C(=O)N2C(C(=O)O)=C(S[C@@H]3CN[C@H](C(=O)N4CCC(N)C4)C3)[C@H](C)[C@H]12 (stereo in doubt) [Example 362, (4R,5S,6S)-3-((3S,5S)-5-((R)-3-aminopyrrolidine-1-carbonyl)pyrrolidin-3-ylthio)-4-methyl-6-((R)-1-(methylsulfonamido)ethyl)-7-oxo-1-azabicyclo[3.2.0]hept-2-ene-2-carboxylic acid] | 4 µg/mL (≈ 7.97 µM) | 8 µg/mL (≈ 15.9 µM) | 4 µg/mL (≈ 7.97 µM) | 4 µg/mL (≈ 7.97 µM) | 0.25 µg/mL (≈ 0.498 µM)
4 | C[C@@H](NC(=O)Cc1cccs1)[C@H]1C(=O)N2C(C(=O)O)=C(S[C@@H]3CN[C@H](C(=O)N(C)C)C3)[C@H](C)[C@H]12 [Example 5] | > 128 µg/mL | 8 µg/mL (≈ 15.8 µM) | > 128 µg/mL | > 128 µg/mL | 8 µg/mL (≈ 15.8 µM)
5 | C[C@@H](NS(C)(=O)=O)[C@H]1C(=O)N2C(C(=O)O)=C(S[C@@H]3CN[C@H](CNS(N)(=O)=O)C3)[C@H](C)[C@H]12 [Example 7] | 2 to 4 µg/mL (≈ 4.02 to 8.04 µM) | 2 to 8 µg/mL (≈ 4.02 to 16.1 µM) | 32 to 64 µg/mL (≈ 64.3 to 129 µM) | 2 to 4 µg/mL (≈ 4.02 to 8.04 µM) | 0.5 µg/mL (≈ 1 µM)
6 | COc1ccc(S(=O)(=O)N[C@H](C)[C@H]2C(=O)N3C(C(=O)O)=C(S[C@@H]4CN[C@H](C(=O)N(C)C)C4)[C@H](C)C23)cc1OC (stereo partly drawn) [Example 9] | > 128 µg/mL | 8 µg/mL (≈ 13.7 µM) | > 128 µg/mL | > 128 µg/mL | 128 µg/mL (≈ 220 µM)
7 | C[C@@H](NS(=O)(=O)C(F)(F)F)[C@H]1C(=O)N2C(C(=O)O)=C(S[C@@H]3CN[C@H](C(=O)N(C)C)C3)[C@H](C)[C@H]12 [Example 13] | 8 µg/mL (≈ 15.5 µM) | 4 µg/mL (≈ 7.77 µM) | 64 µg/mL (≈ 124 µM) | 4 µg/mL (≈ 7.77 µM) | 1 µg/mL (≈ 1.94 µM)
8 | COC(=O)N[C@H](C)[C@H]1C(=O)N2C(C(=O)O)=C(S[C@@H]3CN[C@H](C(=O)N(C)C)C3)[C@H](C)[C@H]12 [Example 14] | 4 µg/mL (≈ 9.08 µM) | 4 µg/mL (≈ 9.08 µM) | 128 µg/mL (≈ 291 µM) | 4 µg/mL (≈ 9.08 µM) | 0.5 µg/mL (≈ 1.14 µM)
9 | CCOC(=O)N[C@H](C)[C@H]1C(=O)N2C(C(=O)O)=C(S[C@@H]3CN[C@H](C(=O)N(C)C)C3)[C@H](C)[C@H]12 [Example 15] | 16 µg/mL (≈ 35.2 µM) | 2 µg/mL (≈ 4.4 µM) | 128 µg/mL (≈ 282 µM) | 16 µg/mL (≈ 35.2 µM) | 1 µg/mL (≈ 2.2 µM)
10 | C[C@@H](NS(=O)(=O)Cc1ccccc1)[C@H]1C(=O)N2C(C(=O)O)=C(S[C@@H]3CN[C@H](C(=O)N(C)C)C3)[C@H](C)[C@H]12 [Example 16] | 64 µg/mL (≈ 119 µM) | 4 µg/mL (≈ 7.45 µM) | > 128 µg/mL | 16 µg/mL (≈ 29.8 µM) | 4 µg/mL (≈ 7.45 µM)
11 | CCCCS(=O)(=O)N[C@H](C)[C@H]1C(=O)N2C(C(=O)O)=C(S[C@@H]3CN[C@H](C(=O)N(C)C)C3)[C@H](C)[C@H]12 [Example 18] | 64 µg/mL (≈ 127 µM) | 8 µg/mL (≈ 15.9 µM) | 32 µg/mL (≈ 63.7 µM) | 8 µg/mL (≈ 15.9 µM) | 4 µg/mL (≈ 7.96 µM)
12 | C[C@@H](NS(=O)(=O)C(F)(F)F)[C@H]1C(=O)N2C(C(=O)O)=C(S[C@@H]3CN[C@H](CNS(N)(=O)=O)C3)[C@H](C)[C@H]12 [Example 19] | 8 µg/mL (≈ 14.5 µM) | 1 µg/mL (≈ 1.81 µM) | 128 µg/mL (≈ 232 µM) | > 128 µg/mL | 1 µg/mL (≈ 1.81 µM)
13 | CC(C)OC(=O)N[C@H](C)[C@H]1C(=O)N2C(C(=O)O)=C(S[C@@H]3CN[C@H](C(=O)N(C)C)C3)[C@H](C)[C@H]12 [Example 22] | 64 to 128 µg/mL (≈ 137 to 273 µM) | 2 µg/mL (≈ 4.27 µM) | > 128 µg/mL | 32 µg/mL (≈ 68.3 µM) | 8 µg/mL (≈ 17.1 µM)
14 | C[C@@H](NC(=O)Cn1cnnn1)[C@H]1C(=O)N2C(C(=O)O)=C(CN3C[C@H](NC(=N)N)[C@@H](O)C3)[C@H](C)[C@H]12 [Example 600, (4S,5R,6R)-6-((R)-1-(2-(1H-tetrazol-1-yl)acetamido)ethyl)-3-(((3S,4S)-3-guanidino-4-hydroxypyrrolidin-1-yl)methyl)-4-methyl-7-oxo-1-azabicyclo[3.2.0]hept-2-ene-2-carboxylic acid] | – | 0.5 µg/mL (≈ 1.05 µM) | 16 µg/mL (≈ 33.6 µM) | 4 µg/mL (≈ 8.39 µM) | 0.5 µg/mL (≈ 1.05 µM)
15 | C[C@@H](NC(=O)Cn1cnnn1)[C@H]1C(=O)N2C(C(=O)O)=C(S[C@@H]3CN[C@H](C(=O)N4CCC5CNCCC54)C3)C[C@H]12 (stereo partly drawn) [Example 601, (5R,6R)-6-((R)-1-(2-(1H-tetrazol-1-yl)acetamido)ethyl)-3-((3S,5S)-5-(octahydro-1H-pyrrolo[3,2-c]pyridine-1-carbonyl)pyrrolidin-3-ylthio)-7-oxo-1-azabicyclo[3.2.0]hept-2-ene-2-carboxylic acid] | – | 2 µg/mL (≈ 3.57 µM) | 128 µg/mL (≈ 229 µM) | 64 µg/mL (≈ 114 µM) | 2 µg/mL (≈ 3.57 µM)

Next, values leading:

Row | MIC [1] | MIC [2] | MIC [3] | MIC [4] | MIC [5] | Structure (SMILES)
16 | 2 µg/mL (≈ 4.21 µM) | 16 µg/mL (≈ 33.7 µM) | > 128 µg/mL | 4 µg/mL (≈ 8.43 µM) | 1 µg/mL (≈ 2.11 µM) | CCS(=O)(=O)N[C@H](C)[C@H]1C(=O)N2C(C(=O)O)=C(S[C@@H]3CN[C@H](C(=O)N(C)C)C3)[C@H](C)[C@H]12 [Example 10]
17 | 64 µg/mL (≈ 122 µM) | 8 µg/mL (≈ 15.3 µM) | > 128 µg/mL | 32 µg/mL (≈ 61.2 µM) | 4 µg/mL (≈ 7.65 µM) | C[C@@H](NS(=O)(=O)c1ccccc1)[C@H]1C(=O)N2C(C(=O)O)=C(S[C@@H]3CN[C@H](C(=O)N(C)C)C3)[C@H](C)[C@H]12 [Example 11]
18 | 128 µg/mL (≈ 237 µM) | 8 µg/mL (≈ 14.8 µM) | > 128 µg/mL | 32 µg/mL (≈ 59.2 µM) | 4 µg/mL (≈ 7.4 µM) | C[C@@H](NS(=O)(=O)c1ccc(F)cc1)[C@H]1C(=O)N2C(C(=O)O)=C(S[C@@H]3CN[C@H](C(=O)N(C)C)C3)[C@H](C)[C@H]12 [Example 12]
19 | > 128 µg/mL | 4 µg/mL (≈ 7.71 µM) | 128 µg/mL (≈ 247 µM) | 32 µg/mL (≈ 61.7 µM) | 16 µg/mL (≈ 30.9 µM) | C[C@@H](NC(=O)C1(C(F)(F)F)CC1)[C@H]1C(=O)N2C(C(=O)O)=C(S[C@@H]3CN[C@H](C(=O)N(C)C)C3)[C@H](C)[C@H]12 [Example 17]
20 | 8 µg/mL (≈ 17 µM) | 2 µg/mL (≈ 4.25 µM) | 128 µg/mL (≈ 272 µM) | 16 µg/mL (≈ 34 µM) | 1 µg/mL (≈ 2.12 µM) | CCOC(=S)N[C@H](C)[C@H]1C(=O)N2C(C(=O)O)=C(S[C@@H]3CN[C@H](C(=O)N(C)C)C3)[C@H](C)[C@H]12 [Example 20]
21 | 4 µg/mL (≈ 8.8 µM) | 2 µg/mL (≈ 4.4 µM) | > 128 µg/mL | 4 to 16 µg/mL (≈ 8.8 to 35.2 µM) | 2 µg/mL (≈ 4.4 µM) | COCC(=O)N[C@H](C)[C@H]1C(=O)N2C(C(=O)O)=C(S[C@@H]3CN[C@H](C(=O)N(C)C)C3)[C@H](C)[C@H]12 [Example 21]
22 | 1 µg/mL (≈ 1.94 µM) | 16 µg/mL (≈ 31 µM) | 32 to 128 µg/mL (≈ 62.1 to 248 µM) | 8 µg/mL (≈ 15.5 µM) | 0.5 µg/mL (≈ 0.97 µM) | C[C@@H](NS(C)(=O)=O)[C@H]1C(=O)N2C(C(=O)O)=C(S[C@@H]3CN[C@H](C(=O)N4CCN(C)CC4)C3)[C@H](C)[C@H]12 [Example 23]
